Data reported in patent publication US20160067265A1, “Abiraterone Acetate Formulation” (ICEUTICA INC., priority 2013, published 2016).

What was measured:
[1] = Accelerated stability, 4 hrs at 80° C., total impurities; conditions: after 4 hours at 80° C.
Protocol: As part of the analysis of impurity growth, the impact on impurity level of various excipients useful for tablet preparation was examined by blending the DPI with various excipients and heating for 4 hours at 80° C.

[2] = Particle size analysis (Malvern Mastersizer 3000), Example 4; type: physicochemical; conditions: volume statistics, in 0.1% PVP
Protocol: This cycle was continued until the total sonication time reached one minute. […] The sample was then allowed to stir for 5 minutes prior to taking measurements. Data from the final measurements are presented in Table 1 and depicted graphically in FIG. 3. For comparison, the particle size distribution of unmilled abiraterone acetate (raw drug substance) was also determined. […] The sample was then allowed to stir for 5 minutes prior to taking measurements. The data from these measurements are presented in Table 1 and depicted graphically in FIG. 3. […] No fine particle abiraterone acetate was measured in the unmilled drug sample. [table]

[3] = Particle size distribution by light scattering (Malvern Mastersizer 2000), Example 1; type: physicochemical; conditions: volume statistics
Text: Abiraterone acetate drug substance was obtained from Hangzhao Dayangchem Co., Ltd.; Hangzhao City, P.R. China.

[4] = Comparative capsule dissolution, 10 mmol phosphate buffer pH 6 with 0.1% SDS, Example 2; type: physicochemical; conditions: pH 6 phosphate buffer, 37° C.
Protocol: Also, 250 mg of unmilled abiraterone acetate was hand filled into similar capsules. Dissolution profiles were measured in triplicate using a Varian VK7025 dissolution apparatus fitted with (6) 1000 mL vessels, with detection performed in a Varian UV-Vis Spectrophotometer at 270 nm. Each vessel contained 900 mL dissolution media consisting of 10 mmol phosphate buffer at pH 6 with 0.1% SDS added. Experiments were conducted at 37° C. The hard gelatin capsules were fitted inside spiral sinkers before commencing the dissolution experiments.

CC(=O)O[C@H]1CC[C@@]2(C)C(=CC[C@@H]3[C@@H]2CC[C@]2(C)C(c4cccnc4)=CC[C@@H]32)C1 [API prior to size reduction, Abiraterone acetate]
degradation [1]: essentially no degradation

CC(=O)O[C@H]1CC[C@@]2(C)C(=CC[C@@H]3[C@@H]2CC[C@]2(C)C(c4cccnc4)=CC[C@@H]32)C1 [Unmilled, Abiraterone acetate]
D4,3 [2]: 28.1 μm
D10 [2]: 8.18 μm
D50 [2]: 21.8 μm
D90 [2]: 47.3 μm

CC(=O)O[C@H]1CC[C@@]2(C)C(=CC[C@@H]3[C@@H]2CC[C@]2(C)C(c4cccnc4)=CC[C@@H]32)C1 [unmilled abiraterone acetate, Abiraterone acetate]
D10 [3]: 16 μm
D50 [3]: 37 μm
D90 [3]: 70 μm
average particle size [3]: approximately 40 μm
% dissolved after one hour [4]: approximately 10%
